Measured values published in patent publication US20250230193A1, “CYCLIC COMPOUND HAVING SELECTIVE KRAS INHIBITORY EFFECT ON HRAS AND NRAS” (CHUGAI SEIYAKU KABUSHIKI KAISHA, priority 2022, published 2025).
Where a SMILES comes first, the peptide text is derived from it. Bridges are numbered along the chain shown (N, C = ends). [ ]: non-standard residue; d: D form. The star is where a group is joined. hPhe(3-Cl-4-CF3) = N[C@@H](CCc1ccc(C(F)(F)F)c(Cl)c1)C(=O)O; NPrPhe(4-CF3) = CCCN[C@@H](Cc1ccc(C(F)(F)F)cc1)C(=O)O; 3Oxa8azabicyclo(3.2.1)octane = C1CC2COCC1N2*; NMeGly(cPent) = CN[C@H](C(=O)O)C1CCCC1; NMeD = CN[C@@H](CC(=O)O)C(=O)O; NMeL = CN[C@@H](CC(C)C)C(=O)O; Ac5c = NC1(C(=O)O)CCCC1; Aze = O=C(O)[C@@H]1CCN1; Ac4c = NC1(C(=O)O)CCC1; Sar = CNCC(=O)O

How the values were obtained:
[1] = molecular target: GDP-bound NRAS wild-type protein (Homo sapiens, UniProt P01111); test: Binding to NRAS by surface plasmon resonance (SPR), Single Cycle Kinetics; settings: SPR
[2] = molecular target: GDP-bound HRAS wild-type protein (Homo sapiens, UniProt P01112); test: Binding to HRAS by surface plasmon resonance (SPR), Single Cycle Kinetics; settings: SPR
[3] = KD ratio NRAS/KRAS, GDP-bound wild-type proteins
[4] = KD ratio HRAS/KRAS, GDP-bound wild-type proteins
[5] = KD ratio, GDP-bound NRAS wild-type vs GDP-bound KRAS wild-type
[6] = KD ratio, GDP-bound HRAS wild-type vs GDP-bound KRAS wild-type
[7] = GDP-bound NRAS wild-type vs GDP-bound KRAS wild-type
[8] = GDP-bound HRAS wild-type vs GDP-bound KRAS wild-type

GDP-bound HRAS wild-type protein, sequence (P01112 whole entry): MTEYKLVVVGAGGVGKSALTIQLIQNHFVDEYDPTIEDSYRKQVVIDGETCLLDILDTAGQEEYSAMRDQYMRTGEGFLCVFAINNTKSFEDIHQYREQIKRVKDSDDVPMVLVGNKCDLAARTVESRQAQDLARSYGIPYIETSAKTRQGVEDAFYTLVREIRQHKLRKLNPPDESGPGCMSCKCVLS
GDP-bound NRAS wild-type protein, sequence (P01111 whole entry): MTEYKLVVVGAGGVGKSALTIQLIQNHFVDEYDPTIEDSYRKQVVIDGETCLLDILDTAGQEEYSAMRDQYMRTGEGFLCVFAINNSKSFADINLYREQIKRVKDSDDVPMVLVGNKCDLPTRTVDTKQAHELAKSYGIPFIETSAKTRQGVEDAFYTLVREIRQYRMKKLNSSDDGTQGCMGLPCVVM

## CCCN1C(=O)CN(C)C(=O)CN(C)C(=O)[C@H]([C@@H](C)CC)NC(=O)[C@H](CC(C)C)N(C)C(=O)C[C@@H](C(=O)N2C3CCC2COC3)N(C)C(=O)[C@H](C2CCCC2)N(C)C(=O)C2(CCCC2)NC(=O)[C@@H]2CCCN2C(=O)[C@H](CCc2ccc(C(F)(F)F)c(Cl)c2)NC(=O)CN(C)C(=O)[C@@H]1Cc1ccc(C(F)(F)F)cc1 [PP0173] ([NMeL]I[Sar][Sar][NPrPhe(4-CF3)][Sar][hPhe(3-Cl-4-CF3)]P[Ac5c][NMeGly(cPent)][NMeD]-{3Oxa8azabicyclo(3.2.1)octane}; lactam N-11)
[1]; KD ratio NRAS/KRAS
  NRAS/KRAS (ratio of KD for GDP-bound NRAS wild-type to KD for KRAS): B (a compound having 3 or more and less than 10 is denoted as B)
[2]; KD ratio HRAS/KRAS
  HRAS/KRAS (ratio of KD for GDP-bound HRAS wild-type to KD for KRAS): C (A compound having a KD ratio of 0.1 or more and less than 3 is denoted as C)

## CCO[C@@H]1C[C@H]2C(=O)NC3(CCC3)C(=O)N(C)[C@@H](C3CCCC3)C(=O)N(C)[C@H](C(=O)N3CCCCC3)CC(=O)N(C)[C@H]3CCCCCCc4ccc(cc4)C[C@@H](C(=O)N(C)CC(=O)N[C@@H](CCc4ccc(C(F)(F)F)c(OC)c4)C(=O)N2C1)N1CC/C=C\C[C@@H](C1=O)N(C)C(=O)CN(C)C(=O)[C@H]([C@@H](C)CC)NC3=O [PP3033, (1S,7S,11R,13S,19S,22S,26S,29S,35S,37Z)-19-cyclopentyl-11-ethoxy-7-[2-[3-methoxy-4-(trifluoromethyl)phenyl]ethyl]-3,18,21,25,31,34-hexamethyl-29-[(1S)-1-methylpropyl]-22-(piperidine-1-carbonyl)spiro[3,6,9,15,18,21,25,28,31,34,41-undecazapentacyclo[24.15.11.2^43,46.1^35,41.0^9,13]pentapentaconta-37,43(54),44,46(53)-tetraene-16,1′-cyclobutane]-2,5,8,14,17,20,24,27,30,33,55-undecone]
[1]; [3]
  NRAS/KRAS (ratio of KD value with respect to GDP-bound NRAS wild-type protein to KD value with respect to KRAS): A (a compound having 10 or more and less than 20 is denoted as A)
[2]; [4]
  HRAS/KRAS (ratio of KD value with respect to GDP-bound HRAS wild-type protein to KD value with respect to KRAS): B (a compound having 3 or more and less than 10 is denoted as B)

## CCCN(C)C(=O)[C@@H]1CC(=O)N(C)[C@@H](C)C(=O)N[C@@H]([C@@H](C)CC)C(=O)N(C)CC(=O)N(C)[C@H]2C/C=C\CCN(C2=O)[C@@H](Cc2ccc(C(F)(F)F)cc2)C(=O)N(C)CC(=O)N[C@@H](CCc2cc(F)c(C(F)(F)F)c(F)c2)C(=O)N2C[C@H](OCC)C[C@H]2C(=O)NC2(CC(F)(F)C2)C(=O)N(C)[C@@H](C2CCCC2)C(=O)N1C [PP1731]
[1]; [5]
  NRAS/KRAS (ratio of KD value for NRAS to KD value for KRAS): A (a compound having 10 or more and less than 20 is denoted as A)
[2]; [6]
  HRAS/KRAS (ratio of KD value for HRAS to KD value for KRAS): A (a compound having 10 or more and less than 20 is denoted as A)

## CCO[C@@H]1C[C@H]2C(=O)NC3(CC(C)(C)C3)C(=O)N(C)[C@@H](C(CC)CC)C(=O)N(C)[C@H](C(=O)N(C)C)CC(=O)N(C)[C@H]3CCCC/C=C/c4ccc(cc4)C[C@@H](C(=O)N(C)CC(=O)N[C@@H](CCc4cc(F)c(C(F)(F)F)c(F)c4)C(=O)N2C1)N1CC/C=C\C[C@@H](C1=O)N(C)C(=O)CN(C)C(=O)[C@H]([C@@H](C)CC)NC3=O [PP3044]
[1]; [3]
  NRAS/KRAS (ratio of KD value with respect to GDP-bound NRAS wild-type protein to KD value with respect to KRAS): AA (a compound having 20 or more is denoted as AA)
[2]; [4]
  HRAS/KRAS (ratio of KD value with respect to GDP-bound HRAS wild-type protein to KD value with respect to KRAS): A (a compound having 10 or more and less than 20 is denoted as A)

## CCO[C@@H]1C[C@H]2C(=O)NC3(CCC3)C(=O)N(C)[C@@H](C3CCCC3)C(=O)N(C)[C@H](C(=O)N(C)C)CC(=O)N(C)[C@@H](COC)C(=O)N[C@@H]([C@@H](C)CC)C(=O)N(C)CC(=O)N(C)[C@H]3CCCCN(C3=O)[C@@H](Cc3ccc(C(F)(F)F)cc3)C(=O)N(C)CC(=O)N[C@@H](CCc3cc(F)c(C(F)(F)F)c(F)c3)C(=O)N2C1 [PP0704]
[1]; KD ratio NRAS/KRAS
  NRAS/KRAS (ratio of KD value with respect to GDP-bound NRAS wild-type protein to KD value with respect to KRAS): C (A compound having a KD ratio of 0.1 or more and less than 3 is denoted as C)
[2]; KD ratio HRAS/KRAS
  HRAS/KRAS (ratio of KD value with respect to GDP-bound HRAS wild-type protein to KD value with respect to KRAS): C (A compound having a KD ratio of 0.1 or more and less than 3 is denoted as C)

## CCO[C@@H]1C[C@H]2C(=O)NC3(CCC(F)(F)CC3)C(=O)N(C)[C@@H](C3CCCC3)C(=O)N(C)[C@H](C(=O)N3CCOCC3)CC(=O)N(C)[C@@H](CC(C)C)C(=O)N[C@@H]([C@@H](C)CC)C(=O)N(C)CC(=O)N(C)[C@H]3CCCCCN(C3=O)[C@@H](Cc3ccc(C(F)(F)F)cc3)C(=O)N(C)CC(=O)N[C@@H](CCc3cc(F)c(C(F)(F)F)c(F)c3)C(=O)N2C1 [PP0728]
[1]; KD ratio NRAS/KRAS
  NRAS/KRAS (ratio of KD value with respect to GDP-bound NRAS wild-type protein to KD value with respect to KRAS): B (a compound having 3 or more and less than 10 is denoted as B)
[2]; KD ratio HRAS/KRAS
  HRAS/KRAS (ratio of KD value with respect to GDP-bound HRAS wild-type protein to KD value with respect to KRAS): B (a compound having 3 or more and less than 10 is denoted as B)

## CCO[C@@H]1C[C@H]2C(=O)NC3(CCC3)C(=O)N(C)[C@@H](C3CCCC3)C(=O)N(C)[C@H](C(=O)N(C)C)CC(=O)N(C)[C@@H](CC)C(=O)N[C@@H]([C@@H](C)CC)C(=O)N3CC[C@H]3C(=O)N(C)[C@H]3CC(C)=CCN(C3=O)[C@@H](Cc3ccc(C(F)(F)F)cc3)C(=O)N(C)CC(=O)N[C@@H](CCc3cc(F)c(C(F)(F)F)c(F)c3)C(=O)N2C1 [PP1035]
[1]; [5]
  NRAS/KRAS (ratio of KD value with respect to NRAS to KD value with respect to KRAS): C (A compound having a KD ratio of 0.1 or more and less than 3 is denoted as C)
[2]; [6]
  HRAS/KRAS (ratio of KD value with respect to HRAS to KD value with respect to KRAS): C (A compound having a KD ratio of 0.1 or more and less than 3 is denoted as C)

## CC[C@H](C)[C@@H]1NC(=O)[C@H](CC(C)C)N(C)C(=O)C[C@@H](C(=O)N2CCOCC2)N(C)C(=O)[C@H](C2CCCC2)N(C)C(=O)C2(CCCC2)NC(=O)[C@@H]2CCCN2C(=O)[C@H](CCc2cc(F)c(C(F)(F)F)c(F)c2)NC(=O)CN(C)C(=O)[C@H](Cc2ccc(C(F)(F)F)cc2)N2CCCC[C@@H](C2=O)N(C)C(=O)[C@@H]2CCCCN2C1=O [PP0548]
[1]; KD ratio NRAS/KRAS
  NRAS/KRAS (ratio of KD value with respect to GDP-bound NRAS wild-type protein to KD value with respect to KRAS): C (A compound having a KD ratio of 0.1 or more and less than 3 is denoted as C)
[2]; KD ratio HRAS/KRAS
  HRAS/KRAS (ratio of KD value with respect to GDP-bound HRAS wild-type protein to KD value with respect to KRAS): B (a compound having 3 or more and less than 10 is denoted as B)

## CCO[C@@H]1C[C@H]2C(=O)NC3(CC(C)(C)C3)C(=O)N(C)[C@@H](C(CC)CC)C(=O)N(C)[C@H](C(=O)N(C)C)CC(=O)N(C)[C@@H](C)C(=O)N[C@@H]([C@@H](C)CC)C(=O)N(C)CC(=O)N(C)[C@H]3C/C=C\CCN(C3=O)[C@@H](Cc3ccc(C)cc3)C(=O)N(C)CC(=O)N[C@@H](CCc3ccc(C(F)(F)F)c(Cl)c3)C(=O)N2C1 [PP2150]
[1]; [7]
  NRAS/KRAS (ratio of KD value with respect to NRAS to KD value with respect to KRAS): AA (a compound having 20 or more is denoted as AA)
[2]; [8]
  HRAS/KRAS (ratio of KD value with respect to HRAS to KD value with respect to KRAS): A (a compound having 10 or more and less than 20 is denoted as A)

## CC[C@H](C)[C@@H]1NC(=O)[C@H](C2CC2)N(C)C(=O)C[C@@H](C(=O)N(C)CC)N(C)C(=O)[C@H](C2CCCC2)N(C)C(=O)C2(CCC2)NC(=O)[C@@H]2C[C@H](C)CN2C(=O)[C@H](CCc2cc(F)c(C(F)(F)F)c(F)c2)NC(=O)CN(C)C(=O)[C@H](Cc2ccc(C(F)(F)F)cc2)N2CC/C=C\C[C@@H](C2=O)N(C)C(=O)CN(C)C1=O [PP2080]
[1]; [7]
  NRAS/KRAS (ratio of KD value with respect to NRAS to KD value with respect to KRAS): A (a compound having 10 or more and less than 20 is denoted as A)
[2]; [8]
  HRAS/KRAS (ratio of KD value with respect to HRAS to KD value with respect to KRAS): A (a compound having 10 or more and less than 20 is denoted as A)

## CCCOC[C@H]1C(=O)N[C@@H]([C@@H](C)CC)C(=O)N(C)CC(=O)N(C)[C@H]2C/C=C\CCN(C2=O)[C@@H](Cc2ccc(C)cc2)C(=O)N(C)CC(=O)N[C@@H](CCc2ccc(C(F)(F)F)c(OC)c2)C(=O)N2C[C@H](OCC)C[C@H]2C(=O)NC2(CC(C)(C)C2)C(=O)N(C)[C@@H](C2CCCC2)C(=O)N(C)[C@H](C(=O)N(C)CC)CC(=O)N1C [PP2463]
[1]; [7]
  NRAS/KRAS (ratio of KD value with respect to NRAS to KD value with respect to KRAS): A (a compound having 10 or more and less than 20 is denoted as A)
[2]; [8]
  HRAS/KRAS (ratio of KD value with respect to HRAS to KD value with respect to KRAS): A (a compound having 10 or more and less than 20 is denoted as A)

## CCO[C@@H]1C[C@H]2C(=O)NC3(CCC3)C(=O)N(C)[C@@H](C3CCCC3)C(=O)N(C)[C@H](C(=O)N(C)C)CC(=O)N(C)[C@@H](Cc3ccc(Cl)cc3)C(=O)N[C@@H]([C@@H](C)CC)C(=O)N(C)CC(=O)N(C)[C@H]3CCCCCN(C3=O)[C@@H](Cc3ccc(C(F)(F)F)cc3)C(=O)N(C)CC(=O)N[C@@H](CCc3cc(F)c(C(F)(F)F)c(F)c3)C(=O)N2C1 [PP0940]
[1]; [5]
  NRAS/KRAS (ratio of KD value with respect to NRAS to KD value with respect to KRAS): B (a compound having 3 or more and less than 10 is denoted as B)
[2]; [6]
  HRAS/KRAS (ratio of KD value with respect to HRAS to KD value with respect to KRAS): C (A compound having a KD ratio of 0.1 or more and less than 3 is denoted as C)

## CCCN1C(=O)CN(C)C(=O)[C@@H]2CCN2C(=O)[C@H]([C@@H](C)CC)NC(=O)[C@H](CC(C)C)N(C)C(=O)C[C@@H](C(=O)N(C)C)N(C)C(=O)[C@H](C2CCCC2)N(C)C(=O)C2(CCC2)NC(=O)[C@@H]2CCCN2C(=O)[C@H](CCc2ccc(C(F)(F)F)c(Cl)c2)NC(=O)CN(C)C(=O)[C@@H]1Cc1ccc(C(F)(F)F)cc1 [PP0430] ([NMeL]I[Aze][Sar][NPrPhe(4-CF3)][Sar][hPhe(3-Cl-4-CF3)]P[Ac4c][NMeGly(cPent)][NMeD]-NMe2; lactam N-11)
[1]; KD ratio NRAS/KRAS
  NRAS/KRAS (ratio of KD value with respect to GDP-bound NRAS wild-type protein to KD value with respect to KRAS): B (a compound having 3 or more and less than 10 is denoted as B)
[2]; KD ratio HRAS/KRAS
  HRAS/KRAS (ratio of KD value with respect to GDP-bound HRAS wild-type protein to KD value with respect to KRAS): B (a compound having 3 or more and less than 10 is denoted as B)
